Experimental data taken from paper PMC4650734, “FV-162 is a novel, orally bioavailable, irreversible proteasome inhibitor with improved pharmacokinetics displaying preclinical efficacy with continuous daily dosing” (Cell Death & Disease, 2015).

What was measured:
[1] = test system: MM.1S human myeloma cells; test: Subcutaneous MM.1S myeloma xenograft model; format: in vivo, NOD/SCID mice; details: for tumor burden compared with vehicle control: P<0.01 by day 24, P<0.001 after 27 days
Experimental: Human MM.1S myeloma cells (5 × 10^6) were injected subcutaneously into 6–8-week-old female NOD/SCID mice (10 mice per group). When tumors were palpable, mice were administered vehicle by oral gavage (5% DMSO, 20% Cremophor; once daily × 3 weeks), carfilzomib intravenously (5 mg/kg, once daily on days 1 and 2 of each week × 3 weeks), ONX-0912 by oral gavage (30 mg/kg, once daily on days 1 and 2 of each week × 3 weeks), or FV-162 by oral gavage (30 mg/kg or 100 mg/kg, once daily × 3 weeks). Over time, tumor volume (tumor length × width^2 × 0.5236) was measured with calipers (Control Company, Friendswood, TX, USA), and mouse body weight was monitored.

[2] = test system: CD138- normal hematopoietic cells; test: Annexin V flow cytometry viability of primary bone marrow mononuclear cells, normal fraction; format: cell-based, human; details: 48 h; for sensitivity of CD138- normal hematopoietic cells: concentrations ⩽0.1 μM for FV-162, similar concentrations for ONX-0912
Experimental: Human multiple myeloma cell lines 8226, H929, JJN3, KMH11, KMS11, KMS18, LP1, MM.1 S, OPM2, and U266 were grown in Iscove's modified Dulbecco's medium (IMDM). Cell lines were authenticated with short tandem repeat method in September 2011. In addition, cell lines were continually monitored by morphological inspection. Primary mononuclear cells were isolated from peripheral blood or bone marrow samples from multiple myeloma patients at the Princess Margaret Cancer Centre (Toronto, ON, Canada) by Ficoll density gradient centrifugation and cultured in IMDM. All cell culture media were obtained from the Ontario Cancer Institute Tissue Culture Media Facility (Toronto, ON, Canada) and were supplemented with 10% fetal calf serum, 100 μg/ml penicillin, and 100 μg/ml streptomycin (Hyclone, Logan, UT, USA). […] Cellular viability was primarily assessed by MTS assay according to the manufacturer's instructions (Promega, Madison, WI, USA). Ten thousand cells per well were seeded in triplicate in tissue culture-treated 96-well plates. Two hours after seeding, cells were treated with proteasome inhibitors for 72 h (0.01–10 μM) or DMSO vehicle control. Cell viability was independently confirmed by reading the optical density at 490 nm and by exclusion of trypan blue stain (Invitrogen, Burlington, ON, Canada). Viability of primary mononuclear cells was determined by Annexin V–fluorescein isothiocyanate and propidium iodide co-staining (Biovision Research Products, Mountain View, CA, USA) using flow cytometry according to the manufacturer's instructions after 48 h of treatment with inhibitors or vehicle control.

[3] = Dose tolerance studies / MTD in mice; details: NOD/SCID, mouse, in vivo, po
Experimental: NOD/SCID mice were administered FV-162 (30 mg/kg daily, 7 days/week) in a 5% DMSO, 20% Cremophor vehicle by oral gavage or ONX-0912 (30 mg/kg daily, 7 days/week) in a 5% DMSO, 20% Cremophor vehicle by oral gavage for a week. Mice were monitored for changes in body weight, behavior, and physical appearance.

[4] = test system: CT-L proteasome activity; test: CT-L proteasome activity in RBCs of treated mice; format: in vivo, mouse; details: for duration of inhibition of proteasome activity in isolated RBCs: after single oral treatment of mice; for inhibition of CT-L activity in RBCs compared with ONX-0912 (30 mg/kg): up to 24 h postdose
Experimental: Cells were harvested by centrifugation at 1200 r.p.m. at room temperature. Cell pellets were washed with PBS and lysed with assay lysis buffer (50 mM HEPES (2-[4-(2-hydroxyethyl) piperazin-1-yl]ethanesulfonic acid)), pH 7.5; 150 mM NaCl; 1% Triton X-100; 2 mM ATP). Cell lysates were incubated on ice for 30 min, mixed by vortex every 5 min, and centrifuged at 12 000 × g for 10 min. Supernatants were transferred to a 96-well plate in triplicate. For each assay, 10 μg of total protein were incubated for 1 h at 37 °C with increasing concentrations (0.001–10 μM) of test compound or vehicle control diluted in assay buffer (50 mM Tris-HCl (tris(hydroxymethyl)aminomethane-HCl), pH 7.5; 150 mM NaCl). After incubation, a specific fluorogenic proteasome substrate was added to each assay reaction (40 μM in a total volume of 100 μl). N-Succinyl-Leu-Leu-Val-Tyr-7-amino-4-methylcoumarin (Suc-Leu-Leu-Val-Tyr-AMC) was used for measuring CT-L activity, t-butoxycarbonyl- Leu-Arg-Arg-7-amino-4-methylcoumarin (Boc-Leu-Arg-Arg-AMC) for T-L activity, and benzyloxycarbonyl-L-leucyl-L-leucyl-L-glutamyl-7-amino-4-methylcoumarin (Z-Leu-Leu-Glu-AMC) for C-L activity. The excitation wavelength was 360 nm and the fluorescence emission of free AMC released during the enzymatic reaction was detected at 460 nm on a SpectraMax M5 fluorescent spectrophotometric plate reader (Molecular Devices, Sunnyvale, CA, USA). AMC release rate was measured at 37 °C in a kinetic mode, recording every 5 min for 30 min.
Five-to-six-week-old male NOD/SCID mice were administered vehicle (5% DMSO, 20% Cremophor) or proteasome inhibitors either intravenously or by oral gavage (3 mice per group), and 20–50 μl of venous blood were collected from each mouse over 24 h. Blood samples were mixed with heparin (APP Pharmaceuticals; Schaumburg, IL, USA) in 0.5-ml tubes in accordance with the manufacturer's instructions. After centrifugal separation at 3000 × g for 10 min, RBCs in the bottom layer were transferred into a new tube and stored at −70 °C until use. RBCs were lysed with assay lysis buffer and incubated on ice for 30 min, mixing by vortex every 5 min, and centrifuged at 12 000 × g for 10 min. Supernatants were transferred to a 96-well plate and proteasome activity was measured as described in 'Cell lysates' section.

[5] = Metabolic stability assay with pooled mouse liver microsomes; format: in vitro ADME; details: 5 μM compound, 15 min, 0.5 mg/ml pooled mouse liver microsomes, LC/MS
Experimental: Pooled liver microsomes isolated from male CD-1 mice were purchased from BD Biosciences (San Jose, CA, USA). Metabolic stability was calculated by measuring the percentage of 5 μM of each test compound remaining after 15 min incubation with 0.5 mg/ml liver microsomes at 37 °C. Compounds were detected by LC/MS using a Xevo quadrupole time-of-flight mass spectrometer and an ACQUITY ultra-performance LC (UPLC) system (Waters Inc., Milford, MA, USA) to determine relative peak areas of each parent compound.

| SMILES | tumor burden compared with vehicle control ([1]; 30 mg/kg daily by oral gavage) | tumor burden compared with vehicle control ([1]; 100 mg/kg daily by oral gavage) | tumor growth reduction compared with ONX-0912 (30 mg/kg) ([1]; 100 mg/kg daily, by 27 days after inoculation, P<0.05) | CD138- cells to which compound was toxic ([2]; 0.5 μM) | sensitivity of CD138- normal hematopoietic cells [2] | MTD [3] | duration of inhibition of proteasome activity in isolated RBCs [4] | inhibition of CT-L activity in RBCs compared with ONX-0912 (30 mg/kg) ([4]; single oral dose 30 mg/kg) | inhibition of CT-L activity in RBCs compared with ONX-0912 (30 mg/kg) ([4]; single oral dose 100 mg/kg (half the MTD)) | percentage of parent compound remaining [5] | tumor burden compared with vehicle control ([1]; 30 mg/kg twice weekly by oral gavage) |
| --- | --- | --- | --- | --- | --- | --- | --- | --- | --- | --- | --- |
| Cc1ncc(C(=O)N[C@@H](COC(F)F)C(=O)N[C@@H](COC(F)F)C(=O)N[C@@H](Cc2ccccc2)C(=O)[C@@]2(C)CO2)s1 [FV-162] | significantly reduced tumor burden | significantly reduced tumor burden | greater reduction in tumor growth | 50% | largely insensitive | 200 mg/kg | sustained for up to 24 h | less inhibition of the CT-L activity than ONX-0912 | performed similarly to almost the MTD of ONX-0912 | Over 80% |  |
| COC[C@H](NC(=O)c1cnc(C)s1)C(=O)N[C@@H](COC)C(=O)N[C@@H](Cc1ccccc1)C(=O)[C@@]1(C)CO1 [ONX-0912, reference compound] |  |  |  |  | no adverse effects | 40 mg/kg | sustained for up to 24 h |  |  | 56% | significantly reduced tumor burden |
